From US20160067162A1, “PHOTOPROTECTIVE COMPOUNDS, COMPOSITIONS INCLUDING SAME AND USES THEREOF” (UNIVERSITE DE RENNES 1, priority 2013, published 2016)

Tests used:
[1] = UV spectrum measurement in CHCl3 (λmax, molar extinction coefficient); assay type: physicochemical; details: for λmax exp: 10^−4 M in CHCl3; for ε (molar extinction coefficient at the λmax): 10^−4 M in CHCl3, 1 cm cuvette
Method: The products are diluted in CHCl3 so as to obtain a solution at 10^−4M. The UV spectra are measured using a Uvikon 931 UV-vis spectrophotometer, Serlabo Technologies, Entraigues sur la Sorgue, France. This UV spectrum makes it possible to determine the molar extinction coefficient (mol^−1 L cm^−1) at the λmax by virtue of the Beer-Lambert law: c=A/l×C;
A=value of the absorbance at the λmax; l=length of the cuvette in cm (l=1);
C=concentration of the solution=1×10^−4 mol/l. The theoretical λmax was determined for certain products by DFT calculation.

[2] = SPF measurement, Protocol I (Rennes): simplified O/W emulsion, UV spectrum 200-400 nm; assay type: physicochemical; details: for λc p.I: critical wavelength; for λc p.I / Colipa UVA-PF p.I, at 10% / SPF p.I, at 10%: protocol I; for Colipa UVA-PF p.I, at 10%: product at 10%; for SPF p.I, at 10%: product at 10% in simplified O/W emulsion; for UVA/UVB: ratio of area under the curve 315-400 nm to 280-315 nm
Method: The SPF measurement is carried out according to the following protocol described in Le Dévéhat F., Malargé A., Couteau C., Coiffard L., Legouin B. “Evaluation of a new UV-filter screening method”, 4th symposium of the AFERP “Biodiversity, chimie des substances naturelles et medicaments” [“Biodiversity, chemistry of natural substances and medicaments”] and 3rd Franco-Pakistani symposium, Besançon (France), Jul. 16-17-18, 2010. A solution of each product dissolved in dimethyl sulfoxide is incorporated at 10% into a simplified emulsion of oil-in-water (O/W) type consisting of liquid paraffin, water and SDS at 10%, the whole mixture taken up in absolute ethanol. The UV spectrum of each solution is recorded between 200 nm and 400 nm in a 10 mm quartz cell on a Uvikon 931 UV-vis spectrophotometer and measured in comparison with a control 10% emulsion solution.
The SPF and UVA-PF values are, for the two protocols, calculated from the following equations: […]
where Eλ is the erythemogenic effect of the radiation at the wavelength λ; Sλ is the spectral solar irradiance at the wavelength λ and Tλ is the spectral transmittance of the product at the wavelength λ, λc is the critical wavelength which corresponds to the wavelength at which 90% of the area under the curve (AUC) is integrated between 290 and 400 nm. The UVA/UVB ratio corresponds more specifically to the ratio of the area under the curve between 315 and 400 nm to the area under the curve between 280 and 315 nm.

Compound: O=C1C=C(c2ccc(Cl)cc2)NCC1 [Compound 1, 6-(4-chlorophenyl)-2,3-dihydropyridin-4(1H)-one]
- λmax exp [1]: 328 nm
- ε (molar extinction coefficient at the λmax) [1]: 8131 L/mol/cm
- λc p.I [2]: 366 nm
- Colipa UVA-PF p.I, at 10% [2]: 3.97 ± 0.15
- SPF p.I, at 10% [2]: 2.27 ± 0.06
- UVA/UVB [2]: 4.78 ± 0.57

Compound: CC1CC(OC(=O)c2ccccc2O)CC(C)(C)C1 (stereo not shown) [Homosalate, reference compound]
- λc p.I [2]: 323 ± 1 nm
- Colipa UVA-PF p.I, at 10% [2]: 1.08 ± 0.00
- SPF p.I, at 10% [2]: 1.91 ± 0.04
- UVA/UVB [2]: 0.17 ± 0.00

Compound: COc1ccc2cc(C3=CC(=O)CCN3)ccc2c1 [Compound 15, 6-(6-methoxynaphthalen-2-yl)-2,3-dihydropyridin-4(1H)-one]
- λmax exp [1]: 337 nm
- ε (molar extinction coefficient at the λmax) [1]: 15578 L/mol/cm
- λc p.I [2]: 368 nm
- Colipa UVA-PF p.I, at 10% [2]: 7.41 ± 1.34
- SPF p.I, at 10% [2]: 5.89 ± 0.99
- UVA/UVB [2]: 2.65 ± 0.01

Compound: CC(C)(C)OC(=O)NC1=C(c2ccccc2)N(C(=O)OC(C)(C)C)CCC1=O [Compound 6, tert-butyl 5-(tert-butoxycarbonylamino)-4-oxo-6-phenyl-3,4-dihydropyridine-1(2H)-carboxylate]
- λmax exp [1]: 322 nm
- ε (molar extinction coefficient at the λmax) [1]: 11206 L/mol/cm
- λc p.I [2]: 351 nm
- Colipa UVA-PF p.I, at 10% [2]: 1.56 ± 0.04
- SPF p.I, at 10% [2]: 2.04 ± 0.09
- UVA/UVB [2]: 1.24 ± 0.0

Compound: CN1C=C(NC(=O)OC(C)(C)C)C(=O)CC1 [Compound 18, tert-butyl 1-methyl-4-oxo-1,4,5,6-tetrahydropyridin-3-ylcarbamate]
- λmax exp [1]: 355 nm
- ε (molar extinction coefficient at the λmax) [1]: 8618 L/mol/cm
- λc p.I [2]: 368 nm
- Colipa UVA-PF p.I, at 10% [2]: 3.49 ± 0.17
- SPF p.I, at 10% [2]: 2.67 ± 0.08
- UVA/UVB [2]: 3.05 ± 0.04

Compound: COc1cc(OC)cc(C2=CC(=O)CCN2C(=O)OC(C)(C)C)c1 [Compound 10, tert-butyl 6-(3,5-dimethoxyphenyl)-4-oxo-3,4-dihydropyridine-1(2H)-carboxylate]
- λmax exp [1]: 310 nm
- ε (molar extinction coefficient at the λmax) [1]: 18622 L/mol/cm
- λc p.I [2]: 334 nm
- Colipa UVA-PF p.I, at 10% [2]: 1.88 ± 0.01
- SPF p.I, at 10% [2]: 5.54 ± 0.66
- UVA/UVB [2]: 0.49 ± 0.15

Compound: CC(C)(C)OC(=O)N1CCC(=O)C=C1c1ccc(Oc2ccccc2)cc1 [Compound 12, tert-butyl 4-oxo-6-(4-phenoxyphenyl)-3,4-dihydropyridine-1(2H)-carboxylate]
- λmax exp [1]: 316 nm
- ε (molar extinction coefficient at the λmax) [1]: 20575 L/mol/cm
- λc p.I [2]: 340 nm
- Colipa UVA-PF p.I, at 10% [2]: 1.98 ± 0.05
- SPF p.I, at 10% [2]: 5.31 ± 0.45
- UVA/UVB [2]: 0.71 ± 0.01

Compound: COc1ccccc1C1=CC(=O)CCN1 [Compound 16, 6-(2-methoxyphenyl)-2,3-dihydropyridin-4(1H)-one]
- λmax exp [1]: 333 nm
- ε (molar extinction coefficient at the λmax) [1]: 13110 L/mol/cm
- λc p.I [2]: 358 nm
- Colipa UVA-PF p.I, at 10% [2]: 4.96 ± 0.18
- SPF p.I, at 10% [2]: 5.94 ± 0.34
- UVA/UVB [2]: 2.12

Compound: COc1ccc2cc(C3=CC(=O)CCN3C(=O)OC(C)(C)C)ccc2c1 [Compound 11, tert-butyl 6-(6-methoxynaphthalen-2-yl)-4-oxo-3,4-dihydropyridine-1(2H)-carboxylate]
- λmax exp [1]: 331 nm
- ε (molar extinction coefficient at the λmax) [1]: 14280 L/mol/cm
- λc p.I [2]: 362 nm
- Colipa UVA-PF p.I, at 10% [2]: 4.70 ± 0.42
- SPF p.I, at 10% [2]: 5.50 ± 0.62
- UVA/UVB [2]: 1.92 ± 0.01

Compound: CCOC(=O)/C=C/C1=C(c2ccccc2)NCCC1=O [Compound 8, (E)-ethyl 3-(4-oxo-2-phenyl-1,4,5,6-tetrahydropyridin-3-yl)acrylate]
- λmax exp [1]: 306 nm
- ε (molar extinction coefficient at the λmax) [1]: 16596 L/mol/cm
- λc p.I [2]: 378 nm
- Colipa UVA-PF p.I, at 10% [2]: 5.38 ± 0.16
- SPF p.I, at 10% [2]: 6.73 ± 0.27
- UVA/UVB [2]: 2.22 ± 0.01

Compound: COc1ccc(C(=O)c2ccccc2)c(O)c1 [Oxybenzone, reference compound]
- λc p.I [2]: 349 ± 1 nm
- Colipa UVA-PF p.I, at 10% [2]: 2.63 ± 0.01
- SPF p.I, at 10% [2]: 5.27 ± 0.25
- Colipa UVA-PF p.I, at 10% ([2]; listed as oxybenzone): 2.63
- UVA/UVB [2]: 0.98 ± 0.00

Compound: CCOC(=O)/C=C/C1=C(c2ccccc2)N(C(=O)OC(C)(C)C)CCC1=O [Compound 7, (E)-tert-butyl 5-(3-ethoxy-3-oxoprop-1-enyl)-4-oxo-6-phenyl-3,4-dihydropyridine-1(2H)-carboxylate]
- λmax exp [1]: 343 nm
- ε (molar extinction coefficient at the λmax) [1]: 15426 L/mol/cm
- λc p.I [2]: 375 nm
- Colipa UVA-PF p.I, at 10% [2]: 2.92 ± 0.17
- SPF p.I, at 10% [2]: 1.61 ± 0.13
- UVA/UVB [2]: 6.36 ± 1.16

Compound: CCOC(=O)/C=C/C1=C(c2ccccc2)N[C@@H](COCc2ccccc2)CC1=O [Compound 9, (R,E)-ethyl 3-(6-(benzyloxymethyl)-4-oxo-2-phenyl-1,4,5,6-tetrahydropyridin-3-yl)acrylate]
- λmax exp [1]: 308 nm
- ε (molar extinction coefficient at the λmax) [1]: 31339 L/mol/cm
- λc p.I [2]: 353 nm
- Colipa UVA-PF p.I, at 10% [2]: 3.54
- SPF p.I, at 10% [2]: 5.40 ± 0.43
- UVA/UVB [2]: 1.84

Compound: CCCCC(CC)COC(=O)c1ccc(Nc2nc(Nc3ccc(C(=O)NC(C)(C)C)cc3)nc(Nc3ccc(C(=O)OCC(CC)CCCC)cc3)n2)cc1 (stereo not shown) [Diethylhexyl Butamido Triazone, reference compound]
- Colipa UVA-PF p.I, at 10% [2]: 1.27 ± 0.01
- SPF p.I, at 10% [2]: 10.10 ± 0.02
- UVA/UVB [2]: 0.12 ± 0.01

Compound: CCCC1=C(/C=C/C(=O)OCC)C(=O)C[C@H](Cc2ccccc2)N1 [Compound 17, (S,E)-ethyl 3-(6-benzyl-4-oxo-2-propyl-1,4,5,6-tetrahydropyridin-3-yl)acrylate]
- λmax exp [1]: 316 nm
- ε (molar extinction coefficient at the λmax) [1]: 20260 L/mol/cm
- λc p.I [2]: 353 nm
- Colipa UVA-PF p.I, at 10% [2]: 4.88 ± 0.11
- SPF p.I, at 10% [2]: 13.28 ± 0.66
- UVA/UVB [2]: 1.46 ± 0.01

Compound: PEG-25 PABA [reference compound]
- λc p.I [2]: 324 ± 1 nm
- Colipa UVA-PF p.I, at 10% [2]: 1.11 ± 0.01
- SPF p.I, at 10% [2]: 2.04 ± 0.05
- UVA/UVB [2]: 0.19 ± 0.01
